Source: US20100075345A1, “METHOD OF SCREENING” (priority 2007, published 2010)

Tested on: Mcl-1^(−/−) mouse embryonic fibroblasts (MEFs)
Test: Assay of Mcl-1 null MEF cells: ABT-737-induced killing and rescue, cell viability by CellTitre-Blue/CellTitre-Glo
Format: cell-based
Protocol: In summary, cells are split on day one in order to have them at a confluency of 60-80% on day two. On day two, the cells are seeded out into assay plates at a density that will ensure they are not confluent by day four of the assay. The assay plates are incubated at room temperature for 20-60 minutes before being transferred to 37° C. so that edge effects are minimized. For the same reason, assay plates are never stacked on top of each other in the incubator. On day three the cells are treated first with either qVD or with WEHI library compound. […] On day four the cells are incubated for four hours in the presence of CellTitre-Blue™ Cell Viability Assay. This product contains resaruzin which is metabolized by live cells to resorufin. After four hours the level of resorufin is measured. […] This product measures the level of ATP in the cell culture as a direct correlate of cell viability via a luciferase-dependent luminescence output. […]
The protocol for day one was repeated up to the point where the cells were pelleted and the supernatant aspirated off. […] The cells were vortexed and then counted using a haemocytometer. The dilution necessary to achieve a density of 2×10^4 cells ml^−1 (1000 cells per well per 50 μl media) in the required volume was calculated and the dilution performed in 1% FCS containing media. […]

SMILES: CC(C)[C@H](NC(=O)c1ccc2ccccc2n1)C(=O)N[C@@H](CC(=O)O)C(=O)COc1c(F)cccc1F [qVD-OPH]
- inhibition of killing of Mcl-1 null MEF cells by ABT-737 (rescue from ABT-737-induced apoptosis) (cells pre-incubated 2 hours with compound, then treated with ABT-737, viability read next day): can be rescued
